# Test results reported in publication PMC3886921, “Cofactor-Independent Phosphoglycerate Mutase from Nematodes Has Limited Druggability, as Revealed by Two High-Throughput Screens” (PLoS Neglected Tropical Diseases, 2014).
# B1: cofactor-independent phosphoglycerate mutase (iPGAM) (Brugia malayi) (protein)
# chain: MAEAKNRVCLVVIDGWGISNETKGNAILNAKTPVMDELCVMNSHPIQAHGLHVGLPEGLMGNSEVGHLNIGAGRVVYQDIVRINLAVKNKTLVENKHLKEAAERAIKGNGRMHLCGLVSDGGVHSHIDHLFALITALKQLKVPKLYIQFFGDGRDTSPTSGVGFLQQLIDFVNKEQYGEISTIVGRYYAMDRDKRWERIRVCYDALIGGVGEKTTIDKAIDVIKGRYAKDETDEFLKPIILSDEGRTKDGDTLIFFDYRADRMREITECMGMERYKDLNSNIKHPKNMQVIGMTQYKAEFTFPALFPPESHKNVLAEWLSVNGLTQFHCAETEKYAHVTFFFNGGVEKQFANEERCLVVSPKVATYDLEPPMSSAAVADKVIEQLHMKKHPFVMCNFAPPDMVGHTGVYEAAVKAVEATDIAIGRIYEACKKNDYILMVTADHGNAEKMMAPDGSKHTAHTCNLVPFTCSSMKYKFMDKLPDREMALCDVAPTVLKVMGVPLPSEMTGQPLVNEA
# notes: Full-length, histidine-tagged
# B2: cofactor-independent phosphoglycerate mutase (iPGAM) (Caenorhabditis elegans) (protein)
# chain: MFVALGAQIYRQYFGRRGMAMANNSSVANKVCLIVIDGWGVSEDPYGNAILNAQTPVMDKLCSGNWAQIEAHGLHVGLPEGLMGNSEVGHLNIGAGRVIYQDIVRINLAVKNNKFVTNESLVDACDRAKNGNGRLHLAGLVSDGGVHSHIDHMFALVKAIKELGVPELYLHFYGDGRDTSPNSGVGFLEQTLEFLEKTTGYGKLATVVGRYYAMDRDNRWERINVAYEAMIGGVGETSDEAGVVEVVRKRYAADETDEFLKPIILQGEKGRVQNDDTIIFFDYRADRMREISAAMGMDRYKDCNSKLAHPSNLQVYGMTQYKAEFPFKSLFPPASNKNVLAEWLAEQKVSQFHCAETEKYAHVTFFFNGGLEKQFEGEERCLVPSPKVATYDLQPEMSAAGVADKMIEQLEAGTHPFIMCNFAPPDMVGHTGVYEAAVKACEATDIAIGRIYEATQKHGYSLMVTADHGNAEKMKAPDGGKHTAHTCYRVPLTLSHPGFKFVDPADRHPALCDVAPTVLAIMGLPQPAEMTGVSIVQKI
# notes: Full-length, histidine-tagged
# Tests used:
# [1] = biological target: T1, cofactor-independent phosphoglycerate mutase (iPGAM) (Brugia malayi, UniProt Q4VWF8); experiment: coupled enzyme assay (NADH absorbance at […] nm), luminescence (Kinase-Glo) confirmation; format: biochemical
# T1 construct: gene ipgm-1; Full-length, histidine-tagged
# T1 sequence (Q4VWF8 1-515): B1 chain
# [2] = biological target: T2, cofactor-independent phosphoglycerate mutase (iPGAM) (Caenorhabditis elegans, UniProt G5EFZ1); experiment: HTS coupled enzyme assay at […] ([…] inhibition), re-tested and reconfirmed; format: biochemical
# T2 construct: gene ipgm-1; Full-length, histidine-tagged
# T2 sequence (G5EFZ1 1-539): B2 chain
# [3] = biological target: T1, cofactor-independent phosphoglycerate mutase (iPGAM); experiment: coupled enzyme assay (NADH absorbance at […] nm), dose-response; luminescence (Kinase-Glo) confirmation; format: biochemical
# [4] = substrate: O=C(O)[C@H](O)COP(=O)(O)O; experiment: enzyme kinetics (Km), coupled assay; format: biochemical, Brugia malayi; conditions: Mg2+
# [5] = substrate: O=C(O)[C@H](O)COP(=O)(O)O; experiment: enzyme kinetics (Km), coupled assay; format: biochemical, Caenorhabditis elegans; conditions: Mg2+
molecule,measurement,setting,value
CCc1cc2c[n+](C3CCCCC3)sc2s1 [Genz-2],IC50,[1],> 10 µM
same,inhibition at 10 µM,[2],> 40%
"Nc1cc2cccnc2c2ncccc12 [NCDS-1, 5-amino-1,10-phenanthroline]",IC50,[3],> 10 µM
B1,Km,[4],370 µM
B2,Km,[5],380 µM
